Reference: the NIST ThermoML archive (doi:10.1021/je050540h)
± gives the expanded uncertainty stated by the source.

How the values were obtained:
[1] = Liquid
[2] = xn = mol fraction of the nth substance listed; conditions: 101 kPa, Liquid

CCCC(C)O (configuration not stated) [pentan-2-ol]
[1]
Conditions	mass density, 293.15 K [kg/m3]	mass density, 298.15 K [kg/m3]	mass density, 303.15 K [kg/m3]	speed of sound, 293.15 K [m/s]	speed of sound, 298.15 K [m/s]	speed of sound, 303.15 K [m/s]	viscosity, 293.15 K [mPa·s]	viscosity, 298.15 K [mPa·s]	viscosity, 303.15 K [mPa·s]
7 kPa	–	–	–	1250 ± 3	1232 ± 3	1214 ± 3	–	–	–
101 kPa	809.04 ± 0.47	805.01 ± 0.48	800.9 ± 0.48	1250 ± 3	1232 ± 3	1214 ± 3	4.001 ± 0.093	3.273 ± 0.077	2.774 ± 0.066

CC(C)O [propan-2-ol]
[1], 101 kPa
Conditions	mass density [kg/m3]	speed of sound [m/s]	viscosity [mPa·s]
293.15 K	785.07 ± 0.48	1156 ± 3	2.382 ± 0.056
298.15 K	780.87 ± 0.48	1139 ± 2	2.045 ± 0.049
303.15 K	776.6 ± 0.49	1121 ± 2	1.763 ± 0.043

C1CCCC1 [cyclopentane] + CCCC(C)O
[2]
Conditions	mass density, 293.15 K [kg/m3]	mass density, 298.15 K [kg/m3]	mass density, 303.15 K [kg/m3]	speed of sound, 293.15 K [m/s]	speed of sound, 298.15 K [m/s]	speed of sound, 303.15 K [m/s]	viscosity, 293.15 K [mPa·s]	viscosity, 298.15 K [mPa·s]	viscosity, 303.15 K [mPa·s]
x1 = 0.045	806.38 ± 0.48	802.28 ± 0.48	798.1 ± 0.49	1246 ± 3	1227 ± 3	1208 ± 3	3.573 ± 0.083	2.948 ± 0.07	2.459 ± 0.059
x1 = 0.103	802.8 ± 0.49	798.62 ± 0.49	794.35 ± 0.5	1239 ± 3	1220 ± 3	1200 ± 3	3.005 ± 0.071	2.509 ± 0.06	2.118 ± 0.051
x1 = 0.1878	797.38 ± 0.5	793.07 ± 0.51	788.68 ± 0.51	1229 ± 3	1209 ± 3	1189 ± 3	2.322 ± 0.056	1.969 ± 0.047	1.687 ± 0.041
x1 = 0.2924	790.57 ± 0.52	786.12 ± 0.53	781.6 ± 0.53	1218 ± 3	1198 ± 3	1177 ± 3	1.723 ± 0.042	1.491 ± 0.036	1.304 ± 0.032
x1 = 0.3906	783.89 ± 0.54	779.33 ± 0.55	774.71 ± 0.55	1209 ± 3	1188 ± 3	1167 ± 3	1.296 ± 0.032	1.148 ± 0.029	1.027 ± 0.026
x1 = 0.5117	775.68 ± 0.56	771.03 ± 0.57	766.32 ± 0.57	1201 ± 3	1179 ± 3	1157 ± 3	0.957 ± 0.025	0.87 ± 0.022	0.794 ± 0.021
x1 = 0.6242	768.16 ± 0.58	763.43 ± 0.59	758.63 ± 0.59	1197 ± 3	1175 ± 3	1152 ± 3	0.747 ± 0.02	0.694 ± 0.018	0.645 ± 0.017
x1 = 0.721	761.81 ± 0.6	756.98 ± 0.6	752.09 ± 0.61	1198 ± 3	1175 ± 3	1152 ± 3	0.629 ± 0.017	0.587 ± 0.016	0.548 ± 0.015
x1 = 0.8091	756.27 ± 0.61	751.36 ± 0.62	746.38 ± 0.62	1202 ± 3	1178 ± 3	1154 ± 3	0.552 ± 0.015	0.516 ± 0.015	0.487 ± 0.014
x1 = 0.9094	749.82 ± 0.63	744.82 ± 0.64	739.76 ± 0.64	1211 ± 3	1186 ± 3	1161 ± 3	0.482 ± 0.014	0.453 ± 0.013	0.428 ± 0.013
x1 = 0.9552	746.94 ± 0.64	741.92 ± 0.64	736.85 ± 0.65	1218 ± 3	1193 ± 3	1167 ± 3	0.455 ± 0.013	0.43 ± 0.013	0.407 ± 0.012
x1 = 1	744.52 ± 0.65	739.55 ± 0.65	734.54 ± 0.66	1232 ± 3	1206 ± 3	1180 ± 3	0.439 ± 0.013	0.416 ± 0.012	0.394 ± 0.012

CCC(C)O (configuration not stated) [butan-2-ol] + C1CCCCC1
[2]
Conditions	mass density, 293.15 K [kg/m3]	mass density, 298.15 K [kg/m3]	mass density, 303.15 K [kg/m3]	speed of sound, 293.15 K [m/s]	speed of sound, 298.15 K [m/s]	speed of sound, 303.15 K [m/s]	viscosity, 293.15 K [mPa·s]	viscosity, 298.15 K [mPa·s]	viscosity, 303.15 K [mPa·s]
x2 = 0	806.84 ± 0.47	802.72 ± 0.48	798.51 ± 0.48	1230 ± 3	1212 ± 3	1194 ± 3	3.623 ± 0.084	2.995 ± 0.071	2.493 ± 0.06
x2 = 0.0494	804.24 ± 0.47	800.04 ± 0.48	795.77 ± 0.49	1228 ± 3	1210 ± 3	1191 ± 3	3.231 ± 0.076	2.687 ± 0.064	2.251 ± 0.054
x2 = 0.1003	801.95 ± 0.47	797.69 ± 0.48	793.34 ± 0.49	1226 ± 3	1207 ± 3	1188 ± 3	2.915 ± 0.068	2.444 ± 0.058	2.066 ± 0.05
x2 = 0.1969	797.77 ± 0.48	793.37 ± 0.48	788.88 ± 0.49	1223 ± 3	1204 ± 3	1184 ± 3	2.227 ± 0.054	1.891 ± 0.046	1.623 ± 0.039
x2 = 0.3052	793.48 ± 0.48	788.95 ± 0.48	784.34 ± 0.49	1222 ± 3	1201 ± 3	1181 ± 3	1.726 ± 0.042	1.489 ± 0.036	1.294 ± 0.032
x2 = 0.4044	789.86 ± 0.48	785.24 ± 0.49	780.54 ± 0.49	1222 ± 3	1201 ± 3	1179 ± 3	1.48 ± 0.036	1.299 ± 0.032	1.142 ± 0.028
x2 = 0.5004	786.73 ± 0.48	782.04 ± 0.49	777.29 ± 0.49	1224 ± 3	1202 ± 3	1180 ± 3	1.315 ± 0.032	1.166 ± 0.029	1.042 ± 0.026
x2 = 0.6016	783.91 ± 0.48	779.18 ± 0.49	774.41 ± 0.49	1228 ± 3	1205 ± 3	1183 ± 3	1.16 ± 0.029	1.042 ± 0.026	0.942 ± 0.024
x2 = 0.7145	781.42 ± 0.48	776.68 ± 0.49	772.02 ± 0.5	1236 ± 3	1213 ± 3	1189 ± 3	1.066 ± 0.026	0.968 ± 0.024	0.888 ± 0.023
x2 = 0.8067	779.85 ± 0.48	775.08 ± 0.49	770.26 ± 0.5	1245 ± 3	1222 ± 3	1198 ± 3	0.98 ± 0.025	0.892 ± 0.023	0.817 ± 0.021
x2 = 0.9046	778.86 ± 0.48	774.06 ± 0.49	769.22 ± 0.49	1259 ± 3	1235 ± 3	1211 ± 3	0.962 ± 0.024	0.879 ± 0.022	0.806 ± 0.021
x2 = 0.9523	778.43 ± 0.48	773.65 ± 0.49	768.82 ± 0.49	1267 ± 3	1242 ± 3	1218 ± 3	0.993 ± 0.025	0.908 ± 0.023	0.833 ± 0.021
